Results: patent US20230295200A1 (REGENTS OF THE UNIVERSITY OF MICHIGAN, priority 2022, published 2023)

target: T1, STAT6 protein (Homo sapiens, UniProt P42226); test: Fluorescence polarization (FP) binding assay, STAT6; conditions: not given
T1 sequence (P42226 1-847): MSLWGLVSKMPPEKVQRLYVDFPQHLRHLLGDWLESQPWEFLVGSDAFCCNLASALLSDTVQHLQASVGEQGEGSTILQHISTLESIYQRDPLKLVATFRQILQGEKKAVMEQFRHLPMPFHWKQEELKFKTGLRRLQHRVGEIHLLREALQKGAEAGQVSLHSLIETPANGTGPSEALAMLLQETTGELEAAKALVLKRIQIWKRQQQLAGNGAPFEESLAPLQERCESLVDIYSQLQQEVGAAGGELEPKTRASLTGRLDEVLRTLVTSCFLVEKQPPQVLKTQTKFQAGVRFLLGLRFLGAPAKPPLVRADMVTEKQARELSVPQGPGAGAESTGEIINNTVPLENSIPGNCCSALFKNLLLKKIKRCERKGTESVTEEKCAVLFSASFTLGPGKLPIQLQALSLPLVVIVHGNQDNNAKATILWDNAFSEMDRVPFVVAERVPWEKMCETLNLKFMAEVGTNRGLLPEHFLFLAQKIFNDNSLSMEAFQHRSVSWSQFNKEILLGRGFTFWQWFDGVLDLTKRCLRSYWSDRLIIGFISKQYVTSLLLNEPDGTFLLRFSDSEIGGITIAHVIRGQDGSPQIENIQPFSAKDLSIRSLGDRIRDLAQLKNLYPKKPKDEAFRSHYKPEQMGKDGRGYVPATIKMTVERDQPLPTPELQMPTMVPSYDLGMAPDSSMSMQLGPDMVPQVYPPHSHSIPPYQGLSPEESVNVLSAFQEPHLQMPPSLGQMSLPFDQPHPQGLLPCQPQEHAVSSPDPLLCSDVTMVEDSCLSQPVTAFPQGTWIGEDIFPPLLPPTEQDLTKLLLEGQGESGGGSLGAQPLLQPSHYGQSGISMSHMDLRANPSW
Method in brief: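 Polarization of a 5 nM fluorescein tracer bound by 200 nM STAT protein, measured after 1 h room-temperature equilibration in buffered PBS pH 7.4 with DTT, gave inhibition constants via nonlinear curve fitting.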

SMILES | Ki
CCOP(=O)(O)C(F)(F)c1ccc2sc(C(=O)N[C@H]3CN(C(C)=O)CC[C@H]4CC[C@@H](C(=O)N5CCC6(CCCCCC6)C5)N4C3=O)cc2c1 [Compound 384, ethyl hydrogen ((2-(((5S,85,10aR)-3-acetyl-6-oxo-8-(2-azaspiro[4.6]undecane-2-carbonyl)decahydropyrrolo[1,2-a][1,5]diazocin-5-yl)carbamoyl)benzo[b]thiophen-5-yl)difluoromethyl)phosphonate] | > 10 µM
CCOP(=O)(O)C(F)(F)c1ccc2sc(C(=O)N[C@H]3CN(C(C)=O)CC[C@H]4CC[C@@H](C(=O)N5CCCC56CCCC6)N4C3=O)cc2c1 [Compound 386, ethyl hydrogen ((2-(((5S,8S,10aR)-3-acetyl-6-oxo-8-(1-azaspiro[4.4]nonane-1-carbonyl)decahydropyrrolo[1,2-a][1,5]diazocin-5-yl)carbamoyl)benzo[b]thiophen-5-yl)difluoromethyl)phosphonate] | > 10 µM

same assay, conditions: FP competition, 5 nM fluorescein-labeled tracer, 200 nM protein, PBS pH7.4; read-out: Binding STAT6

SMILES | Ki
CC(=O)N1CC[C@H]2CC[C@@H](C(=O)N3CCC4(CCCC4)C3)N2C(=O)[C@@H](NC(=O)c2cc3cc(C(F)(F)P(=O)(O)O)ccc3s2)C1 [Compound 382, ((2-(((5S,8S,10aR)-3-acetyl-6-oxo-8-(2-azaspiro[4.4]nonane-2-carbonyl)decahydropyrrolo[1,2-a][1,5]diazocin-5-yl)carbamoyl)benzo[b]thiophen-5-yl)difluoromethyl)phosphonic acid] | > 10 µM
CC(=O)N1CC[C@H]2CC[C@@H](C(=O)N3CCC4(CCCCC4)C3)N2C(=O)[C@@H](NC(=O)c2cc3cc(C(F)(F)P(=O)(O)O)ccc3s2)C1 [Compound 383, ((2-(((5,8S,10aR)-3-acetyl-6-oxo-8-(2-azaspiro[4.5]decane-2-carbonyl)decahydropyrrolo[1,2-a][1,5]diazocin-5-yl)carbamoyl)benzo[b]thiophen-5-yl)difluoromethyl)phosphonic acid] | > 10 µM
CC(=O)N1CC[C@H]2CC[C@@H](C(=O)N3CCC4(CCCCCC4)C3)N2C(=O)[C@@H](NC(=O)c2cc3cc(C(F)(F)P(=O)(O)O)ccc3s2)C1 [Compound 385, ((2-(((5S,8S,10aR)-3-acetyl-6-oxo-8-(2-azaspiro[4.6]undecane-2-carbonyl)decahydropyrrolo[1,2-a][1,5]diazocin-5-yl)carbamoyl)benzo[b]thiophen-5-yl)difluoromethyl)phosphonic acid] | > 10 µM
CC(=O)N1CC[C@H]2CC[C@@H](C(=O)N3CCCC34CCCC4)N2C(=O)[C@@H](NC(=O)c2cc3cc(C(F)(F)P(=O)(O)O)ccc3s2)C1 [Compound 387, ((2-(((5S,8S,10aR)-3-acetyl-6-oxo-8-(1-azaspiro[4.4]nonane-1-carbonyl)decahydropyrrolo[1,2-a][1,5]diazocin-5-yl)carbamoyl)benzo[b]thiophen-5-yl)difluoromethyl)phosphonic acid] | > 10 µM
CCN(C(=O)[C@@H]1CC[C@@H]2CCN(C(C)=O)C[C@H](NC(=O)c3cc4cc(C(F)(F)P(=O)(O)O)ccc4s3)C(=O)N21)c1ccc(Cl)cc1 [Compound 388, ((2-(((5S,8S,10aR)-3-acetyl-8-((4-chlorophenyl)(ethyl)carbamoyl)-6-oxodecahydropyrrolo[1,2-a][1,5]diazocin-5-yl)carbamoyl)benzo[b]thiophen-5-yl)difluoromethyl)phosphonic acid] | > 10 µM
CC(=O)N1CC[C@H]2CC[C@@H](C(=O)N(c3ccc(Cl)cc3)C(C)C)N2C(=O)[C@@H](NC(=O)c2cc3cc(C(F)(F)P(=O)(O)O)ccc3s2)C1 [Compound 389, ((2-(((5S,8S,10aR)-3-acetyl-8-((4-chlorophenyl)(isopropyl)carbamoyl)-6-oxodecahydropyrrolo[1,2-a][1,5]diazocin-5-yl)carbamoyl)benzo[b]thiophen-5-yl)difluoromethyl)phosphonic acid] | 1 to 10 µM
CC(=O)N1CC[C@H]2CC[C@@H](C(=O)N3CCC(C)(C(C)C)C3)N2C(=O)[C@@H](NC(=O)c2cc3cc(C(F)(F)P(=O)(O)O)ccc3s2)C1 (stereo partly drawn) [Compound 390, ((2-(((5S,8S,10aR)-3-acetyl-8-(3-isopropyl-3-methylpyrrolidine-1-carbonyl)-6-oxodecahydropyrrolo[1,2-a][1,5]diazocin-5-yl)carbamoyl)benzo[b]thiophen-5-yl)difluoromethyl)phosphonic acid] | > 10 µM
CC(=O)N1CC[C@H]2CC[C@@H](C(=O)N3CCCCC4(CCCC4)C3)N2C(=O)[C@@H](NC(=O)c2cc3cc(C(F)(F)P(=O)(O)O)ccc3s2)C1 [Compound 391, ((2-(((5S,85,10aR)-3-acetyl-6-oxo-8-(7-azaspiro[4.6]undecane-7-carbonyl)decahydropyrrolo[1,2-a][1,5]diazocin-5-yl)carbamoyl)benzo[b]thiophen-5-yl)difluoromethyl)phosphonic acid] | > 10 µM
CC(=O)N1CC[C@H]2CC[C@@H](C(=O)N3CCC(C(N)=O)(C(F)(F)F)C3)N2C(=O)[C@@H](NC(=O)c2cc3cc(C(F)(F)P(=O)(O)O)ccc3s2)C1 (stereo partly drawn) [Compound 392, ((2-(((5S,8S,10aR)-3-acetyl-8-(3-carbamoyl-3-(trifluoromethyl)pyrrolidine-1-carbonyl)-6-oxodecahydropyrrolo[1,2-a][1,5]diazocin-5-yl)carbamoyl)benzo[b]thiophen-5-yl)difluoromethyl)phosphonic acid] | > 10 µM
CC(=O)N1CC[C@H]2CC[C@@H](C(=O)N3CCC(C)(c4ccccc4)C3)N2C(=O)[C@@H](NC(=O)c2cc3cc(C(F)(F)P(=O)(O)O)ccc3s2)C1 (stereo partly drawn) [Compound 393, ((2-(((5S,8S,10aR)-3-acetyl-8-(3-methyl-3-phenylpyrrolidine-1-carbonyl)-6-oxodecahydropyrrolo[1,2-a][1,5]diazocin-5-yl)carbamoyl)benzo[b]thiophen-5-yl)difluoromethyl)phosphonic acid] | > 10 µM
CC(=O)N1CC[C@H]2CC[C@@H](C(=O)N(C)c3ccc(Br)cc3)N2C(=O)[C@@H](NC(=O)c2cc3cc(C(F)(F)P(=O)(O)O)ccc3s2)C1 [Compound 394, ((2-(((5S,8S,10aR)-3-acetyl-8-((4-bromophenyl)(methyl)carbamoyl)-6-oxodecahydropyrrolo[1,2-a][1,5]diazocin-5-yl)carbamoyl)benzo[b]thiophen-5-yl)difluoromethyl)phosphonic acid] | > 10 µM
CC(=O)N1CC[C@H]2CC[C@@H](C(=O)N3CCC(C)(C4CC4)C3)N2C(=O)[C@@H](NC(=O)c2cc3cc(C(F)(F)P(=O)(O)O)ccc3s2)C1 (stereo partly drawn) [Compound 395, ((2-(((5S,8S,10aR)-3-acetyl-8-(3-cyclopropyl-3-methylpyrrolidine-1-carbonyl)-6-oxodecahydropyrrolo[1,2-a][1,5]diazocin-5-yl)carbamoyl)benzo[b]thiophen-5-yl)difluoromethyl)phosphonic acid] | > 10 µM
